Results taken from ChEMBL document CHEMBL3272323, “1-Halobenzyl-1H-indazole-3-carboxylic acids. A new class of antispermatogenic agents” (1976).
The source made the active and inactive calls. The calls are words filed in the database; no cut-off is given here.

These compounds were tested on Rattus norvegicus (assay: Antispermatogenic activity in po dosed Long-Evans rat assessed as reduction of testes weight administered as single dose measured after 5 days). Details: Testis, 120 h, read-out: MED.
Assay type: functional

**Q.** Which minimal effective dose does the source give for `O=C(OCC(O)CO)c1nn(Cc2ccccc2Cl)c2ccccc12` (stereo not drawn) here?
**A.** The minimal effective dose was 503 mg/kg.

**Q.** Which minimal effective dose does the source give for `O=C(O)c1nn(Cc2ccc(Cl)cc2)c2ccccc12` here?
**A.** The minimal effective dose was 400 mg/kg.

**Q.** With `Cc1cc(Cl)ccc1Cn1nc(C(=O)O)c2ccccc21` [TOLNIDAMINE] as the compound, how does the minimal effective dose read?
**A.** The minimal effective dose was 52 mg/kg.

**Q.** `O=C(OCC(O)CO)c1nn(Cc2ccc(Cl)cc2)c2ccccc12` (stereo not drawn) was tested. Which minimal effective dose did it give?
**A.** Its minimal effective dose is 503 mg/kg.

**Q.** With `O=C(O)c1nn(Cc2cccc(Cl)c2)c2ccccc12` as the compound, how does the minimal effective dose read?
**A.** Its minimal effective dose is 400 mg/kg.

**Q.** `O=C(O)c1nn(Cc2ccc(Br)cc2)c2ccccc12` was tested. Which minimal effective dose did it give?
**A.** The minimal effective dose was 231 mg/kg.

**Q.** How did the minimal effective dose turn out when `O=C(O)c1nn(Cc2ccc(Cl)c(Cl)c2)c2ccccc12` was run?
**A.** Its minimal effective dose is 448 mg/kg.

**Q.** With `O=C(O)c1nn(Cc2ccccc2Cl)c2ccccc12` as the compound, how does the minimal effective dose read?
**A.** Its minimal effective dose is 200 mg/kg.

**Q.** For `O=C(O)c1nn(Cc2cc(Cl)c(Cl)cc2Cl)c2ccccc12`, which minimal effective dose is on record?
**A.** The minimal effective dose was 248 mg/kg.

**Q.** With `O=C(O)c1nn(Cc2ccc(F)cc2)c2ccccc12` as the compound, how does the minimal effective dose read?
**A.** Its minimal effective dose is 377 mg/kg.

**Q.** How did the minimal effective dose turn out when `Cc1ccc(Cn2nc(C(=O)O)c3ccccc32)c(C)c1` [XINIDAMINE] was run?
**A.** The minimal effective dose was 101 mg/kg.

**Q.** Which minimal effective dose does the source give for `O=C(OCC(O)CO)c1nn(Cc2ccc(Cl)cc2Cl)c2ccccc12` (stereo not drawn) here?
**A.** Its minimal effective dose is 69 mg/kg.

**Q.** How did the minimal effective dose turn out when `O=C(O)Cc1nn(Cc2ccc(Cl)cc2)c2ccccc12` was run?
**A.** The minimal effective dose was 419 mg/kg.

**Q.** `O=C(OCCO)c1nn(Cc2ccc(Cl)cc2)c2ccccc12` was tested. Which minimal effective dose did it give?
**A.** Its minimal effective dose is 486 mg/kg.

**Q.** How did the minimal effective dose turn out when `O=C(OCC(O)CO)c1nn(Cc2cc(Cl)c(Cl)cc2Cl)c2ccccc12` (stereo not drawn) was run?
**A.** The minimal effective dose was 300 mg/kg.

**Q.** For `O=C(O)c1nn(Cc2ccc(Br)cc2Br)c2ccccc12`, which minimal effective dose is on record?
**A.** Its minimal effective dose is 76.5 mg/kg.

**Q.** `O=C(OC(CO)CO)c1nn(Cc2ccc(Cl)cc2)c2ccccc12` was tested. Which minimal effective dose did it give?
**A.** The minimal effective dose was 503 mg/kg.

**Q.** For `Cc1ccccc1Cn1nc(C(=O)O)c2ccccc21`, which minimal effective dose is on record?
**A.** Its minimal effective dose is 186 mg/kg.

**Q.** With `O=C(O)c1nn(Cc2ccc(Cl)cc2Cl)c2ccccc12` [LONIDAMINE] as the compound, how does the minimal effective dose read?
**A.** Its minimal effective dose is 56 mg/kg.

**Q.** With `NC(=O)c1nn(Cc2ccc(Cl)cc2)c2ccccc12` as the compound, how does the minimal effective dose read?
**A.** Its minimal effective dose is 399 mg/kg.

**Q.** With `O=C(O)c1nn(Cc2ccc(I)cc2)c2ccccc12` as the compound, how does the minimal effective dose read?
**A.** The minimal effective dose was 528 mg/kg.

The compounds below were run on Rattus norvegicus (assay: Antispermatogenic activity in Long-Evans rat assessed as reduction of testes weight at a dose equimolecular to 400 mg/kg of 1-(4-chlorobenzyl)-1H-indazole-3-carboxylic acid administered orally as single dose measured after 5 days). Details: Testis.
Assay type: functional, organism-based
Set-up: dose 400 mg/kg

**Q.** For `O=C(O)c1nn(Cc2ccc(Cl)cc2)c2ccc(Cl)cc12`, which Activity is on record?
**A.** The Activity was “inactive”.

**Q.** For `O=C(O)c1ccccc1NCc1ccc(Cl)cc1`, which Activity is on record?
**A.** Its Activity is “inactive”.

**Q.** How did the Activity turn out when `Cc1nn(Cc2ccc(Cl)cc2)c2ccccc12` was run?
**A.** Its Activity is “inactive”.

**Q.** With `N#Cc1nn(Cc2ccc(Cl)cc2)c2ccccc12` as the compound, how does the Activity read?
**A.** Its Activity is “inactive”.

**Q.** How did the Activity turn out when `Cc1c(C(=O)O)c2ccccc2n1Cc1ccc(Cl)cc1` was run?
**A.** Its Activity is “inactive”.

**Q.** Which Activity does the source give for `CC(=O)c1nn(Cc2ccc(Cl)cc2)c2ccccc12` here?
**A.** The Activity was “inactive”.

**Q.** How did the Activity turn out when `O=C(NCCCCCCCCNC(=O)C(Cl)Cl)C(Cl)Cl` was run?
**A.** Its Activity is “inactive”.

**Q.** For `O=C(O)c1nn(-c2ccc(Cl)cc2)c2ccccc12`, which Activity is on record?
**A.** The Activity was “inactive”.

**Q.** How did the Activity turn out when `O=C(O)c1nn(Cc2ccc(Cl)cc2)c2ccc(O)cc12` was run?
**A.** Its Activity is “inactive”.

**Q.** For `CCOC(=O)c1nn(Cc2ccc(Cl)cc2)c2ccccc12`, which Activity is on record?
**A.** Its Activity is “inactive”.

**Q.** `CS(=O)(=O)c1ccc(Cn2nc(C(=O)O)c3ccccc32)cc1` was tested. Which Activity did it give?
**A.** Its Activity is “inactive”.

**Q.** For `Clc1ccc(Cn2nc(-c3nnn[nH]3)c3ccccc32)cc1`, which Activity is on record?
**A.** Its Activity is “inactive”.

**Q.** For `Clc1ccc(Cn2ncc3ccccc32)cc1`, which Activity is on record?
**A.** Its Activity is “inactive”.

**Q.** Which Activity does the source give for `O=C(O)c1nn(Cc2c(Cl)cccc2Cl)c2ccccc12` here?
**A.** The Activity was “inactive”.

**Q.** How did the Activity turn out when `Clc1ccc(Cn2nc(-c3nnn[nH]3)c3ccccc32)c(Cl)c1` was run?
**A.** The Activity was “inactive”.

**Q.** With `Sc1nn(Cc2cccc(Cl)c2)c2ccccc12` as the compound, how does the Activity read?
**A.** Its Activity is “inactive”.

**Q.** `O=C(O)c1ccccc1NCc1cccc2ccccc12` was tested. Which Activity did it give?
**A.** Its Activity is “inactive”.

**Q.** How did the Activity turn out when `O=C(O)c1nn(S(=O)(=O)c2ccc(Cl)cc2)c2ccccc12` was run?
**A.** Its Activity is “inactive”.

**Q.** With `Cc1cc(Cl)ccc1Cn1nc(-c2nnn[nH]2)c2ccccc21` as the compound, how does the Activity read?
**A.** The Activity was “inactive”.

**Q.** For `O=C(O)c1nn(Cc2ccc(S(=O)(=O)c3ccccc3)cc2)c2ccccc12`, which Activity is on record?
**A.** The Activity was “inactive”.

**Q.** Which Activity does the source give for `O=C(O)c1nn(Cc2cccc(C(F)(F)F)c2)c2ccccc12` here?
**A.** The Activity was “inactive”.

**Q.** For `N#Cc1ccc(Cn2nc(C(=O)O)c3ccccc32)cc1`, which Activity is on record?
**A.** The Activity was “inactive”.

**Q.** With `O=C(O)c1cc2ccccc2n1Cc1ccc(Cl)cc1` as the compound, how does the Activity read?
**A.** Its Activity is “inactive”.

**Q.** For `O=C(Cn1nc(C(=O)O)c2ccccc21)c1ccc(Cl)cc1`, which Activity is on record?
**A.** The Activity was “inactive”.

**Q.** How did the Activity turn out when `O=C(O)c1nn(C(=O)c2ccc(Cl)cc2)c2ccccc12` was run?
**A.** The Activity was “inactive”.

**Q.** How did the Activity turn out when `OCc1nn(Cc2ccc(Cl)cc2)c2ccccc12` was run?
**A.** The Activity was “inactive”.

**Q.** How did the Activity turn out when `O=C(O)CCc1nn(Cc2ccc(Cl)cc2)c2ccccc12` was run?
**A.** Its Activity is “inactive”.

**Q.** `Clc1ccc(CCn2nc(-c3nnn[nH]3)c3ccccc32)cc1` was tested. Which Activity did it give?
**A.** The Activity was “inactive”.

**Q.** For `Cc1ccc(Cn2nc(C(=O)O)c3ccccc32)cc1`, which Activity is on record?
**A.** Its Activity is “inactive”.

**Q.** For `O=C(O)c1nn(Cc2ccc(Cl)c3ccccc23)c2ccccc12`, which Activity is on record?
**A.** Its Activity is “inactive”.

**Q.** `Cc1cccc(Cn2nc(C(=O)O)c3ccccc32)c1` was tested. Which Activity did it give?
**A.** Its Activity is “inactive”.

**Q.** For `Cc1ccc2c(c1)c(C(=O)O)nn2Cc1ccc(Cl)cc1`, which Activity is on record?
**A.** The Activity was “inactive”.

**Q.** Which Activity does the source give for `O=C(c1ccccc1)c1cccc(Cn2nc(C(=O)O)c3ccccc32)c1` here?
**A.** Its Activity is “inactive”.

**Q.** For `O=C(O)c1cn(Cc2ccc(Cl)cc2)c2ccccc12`, which Activity is on record?
**A.** Its Activity is “inactive”.

**Q.** For `COc1ccc2c(c1)c(C(=O)O)nn2Cc1ccc(Cl)cc1`, which Activity is on record?
**A.** The Activity was “inactive”.

**Q.** How did the Activity turn out when `Nc1nn(Cc2ccc(Cl)cc2)c2ccccc12` was run?
**A.** Its Activity is “inactive”.

**Q.** Which Activity does the source give for `COC(=O)c1nn(Cc2ccc(Cl)cc2)c2ccccc12` here?
**A.** Its Activity is “inactive”.
